Laboratory results as given in patent US10315996B2, “ROR gamma (RORγ) modulators” (LEAD PHARMA HOLDING B.V., priority 2015, dated 2019).

Assays:
[1] = biological target: T1, RORγ (Homo sapiens, UniProt P51449); assay: RORγ GAL4 reporter gene assay; type: cell-based; conditions: inhibition of RORγ activity, GAL4-RORγ-LBD luciferase reporter in 293FT cells, overnight incubation; read-out: mean pIC50 (converted)
T1 construct: expressed in transfected cells; host or cells: 293FT cells (Invitrogen), expression vector pFN26A (Promega)
T1 sequence (P51449 269-508 limits assumed): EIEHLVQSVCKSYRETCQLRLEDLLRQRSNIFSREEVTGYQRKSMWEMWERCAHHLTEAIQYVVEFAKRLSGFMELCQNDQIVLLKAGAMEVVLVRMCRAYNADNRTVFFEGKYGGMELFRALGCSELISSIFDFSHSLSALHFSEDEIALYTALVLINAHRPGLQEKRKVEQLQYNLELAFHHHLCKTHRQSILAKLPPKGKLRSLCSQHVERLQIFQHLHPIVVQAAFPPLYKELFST
In short: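 293FT cells were transiently co-transfected with GAL4-DBD–RORγ-LBD (or GAL4-VP16 control) and a 9×UAS luc2P reporter, then plated at 60,000 cells/well. Compound was added at final 0.2% DMSO for 16-24 h at 37 °C, and inhibition was measured by firefly luciferase luminescence.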

[2] = test system: IL-17A production in anti-CD3/anti-CD28 stimulated peripheral blood mononuclear cells (PBMCs); assay: Peripheral blood mononuclear cell (PBMC) IL-17 assay; type: cell-based; conditions: Homo sapiens, 120 h, inhibition of IL-17A production, PBMCs isolated from human blood, 5 days incubation, IL-17 ELISA, read-out: mean pIC50 (converted)
Procedure: PBMC IL-17 Assay Description
This assay is designed to measure the levels of IL-17A secreted from anti-CD3/anti-CD28 stimulated PBMCs with the aim of measuring RORγ mediated inhibition of IL-17A production.
The assay medium consists of 90% RPMI 1640 (Lonza), 10% heat inactivated fetal bovin serum (FBS, Lonza) and 100 U/mL penicillin/streptomycin solution.
Anti-CD3 antibody (BD Pharmingen) was diluted to 10 μg/ml in PBS (Lonza). 30 μL of 10 μg/ml anti-CD3 solution was added to the inner 60 wells, excluding any negative control wells, of a 96-well cell culture treated U-bottom plate (Greiner). Plates were incubated overnight (16-24 hours) at 37° C. and 5% CO2.
Peripheral blood mononuclear cells were separated from buffy coats (Sanquin) using Ficoll-Paque PREMIUM separation medium (GE Healthcare Life Sciences) according to manufacturer's protocol and re-suspended in assay medium at 37° C.
Test compounds were diluted, starting from a 10 mM dimethylsulfoxide (DMSO) stock solution, to serial dilutions in DMSO at 200× the final test concentration. Subsequently, these solutions were diluted in two dilution steps in assay medium to 10× the final test concentration. The DMSO concentration of the 10× test compound solution was 5%.
Anti-CD28 antibody (BD Pharmingen) was diluted to 20 μg/mL in PBS. The PBMCs were diluted to a concentration of 2.5×10^6 cells/mL in assay medium at 37° C.
For compound screening, the anti-CD3 coated plates were washed three times with PBS, the wells were subsequently aspirated using vacuum. To each screening well 80 μL of the PBMC suspension, 10 μL of the anti-CD28 solution and 10 μL of the 10× test compound solution was added, resulting in the final test concentration with 0.5% DMSO. All outer wells were filled with assay medium to prevent evaporation. Plates were incubated for 5 days at 37° C. and 5% CO2.
After incubation the plates were spun down at 1500 rpm for 4 minutes and the supernatant was collected. Subsequently, the IL-17A levels in the supernatants was determined using an IL-17 ELISA kit (human IL-17 DuoSet, R&D systems) according to manufacturer's protocol.
The half maximum inhibitory concentration ([…]) values for the test compounds were calculated from the IL-17A signal using GraphPad Prism software (GraphPad Software).

IC50 [1] [nM]	SMILES	IC50 [2] [nM]
≤ 100	CC(C)(NC(=O)c1ccc(NC(=O)Cc2ccc(S(=O)(=O)CC3CC3)cc2)cc1)c1ccccc1 [Example 6, 4-[2-(4-cyclopropylmethanesulfonylphenyl)acetamido]-N-(2-phenylpropan-2-yl)benzamide]	≤ 1000
≤ 100	CCCN(CC1CC1)C(=O)c1ccc(NC(=O)Cc2ccc(S(=O)(=O)CC3CC3)cc2)cc1 [Example 9, 4-[2-(4-cyclopropylmethanesulfonylphenyl)acetamido]-N-(cyclopropylmethyl)-N-propylbenzamide]	≤ 1000
≤ 10	CCN(C(=O)c1ccc(NC(=O)Cc2ccc(S(=O)(=O)NC3CC3)cc2)cc1)c1ccc(C)cc1 [Example 45, 4-{2-[4-(cyclopropylsulfamoyl)phenyl]acetamido}-N-ethyl-N-(4-methylphenyl) benzamide]	≤ 1000
≤ 100	C[C@H](NC(=O)c1ccc(NC(=O)Cc2ccc(S(=O)(=O)CC3CC3)cc2)cc1)c1ccccc1F [Example 71, 4-[2-(4-cyclopropylmethanesulfonylphenyl)acetamido]-N-[(1S)-1-(2-fluorophenyl)ethyl]benzamide]	≤ 1000
≤ 10	CCN(C(=O)c1ccc(NC(=O)Cc2ccc(S(=O)(=O)CC3CC3)cc2)cc1)c1ccon1 [Example 103, 4-[2-(4-cyclopropylmethanesulfonylphenyl)acetamido]-N-ethyl-N-(1,2-oxazol-3-yl)benzamide]	≤ 1000
≤ 100	Cc1ccc(N(C(=O)c2ccc(NC(=O)Cc3ccc(S(=O)(=O)CC4CC4)cc3)cc2)C(C)(C)CO)cc1 [Example 153, 4-[2-(4-cyclopropylmethanesulfonylphenyl)acetamido]-N-(1-hydroxy-2-methylpropan-2-yl)-N-(4-methylphenyl)benzamide]	–
≤ 100	Cc1ccc(N(C(=O)c2ccc(NC(=O)Cc3ccc(S(=O)(=O)NC4CC4)cc3)cc2)C(C)(C)CO)cc1 [Example 154, 4-{2-[4-(cyclopropylsulfamoyl)phenyl]acetamido}-N-(1-hydroxy-2-methylpropan-2-yl)-N-(4-methylphenyl)benzamide]	–
≤ 10	O=C(Cc1ccc(S(=O)(=O)CC2CC2)nc1)Nc1ccc(C(=O)N(CC(F)(F)F)c2ccccc2)cc1 [Example 155, 4-[2-(6-cyclopropylmethanesulfonylpyridin-3-yl)acetamido]-N-phenyl-N-(2,2,2-trifluoroethyl)benzamide]	–
≤ 100	CCN(C(=O)c1ccc(NC(=O)Cc2ccc(S(=O)(=O)CC3CC3)nc2)cc1F)c1ccccc1 [Example 156, 4-[2-(6-cyclopropylmethanesulfonylpyridin-3-yl)acetamido]-N-ethyl-2-fluoro-N-phenylbenzamide]	–
≤ 100	CCN(C(=O)c1ccc(NC(=O)Cc2ccc(S(=O)(=O)CC3CC3)nc2)cc1Cl)c1ccccc1 [Example 157, 2-chloro-4-[2-(6-cyclopropylmethanesulfonylpyridin-3-yl)acetamido]-N-ethyl-N-phenylbenzamide]	–
≤ 10	CC(C)(C)N(C(=O)c1ccc(NC(=O)Cc2ccc(S(=O)(=O)CC3CC3)nc2)cc1)c1ccccc1 [Example 158, N-tert-butyl-4-[2-(6-cyclopropylmethanesulfonylpyridin-3-yl)acetamido]-N-phenylbenzamide]	–
≤ 10	CC(C)(C)N(C(=O)c1ccc(NC(=O)Cc2ccc(S(=O)(=O)CC3CC3)nc2)c(F)c1)c1ccccc1 [Example 159, N-tert-butyl-4-[2-(6-cyclopropylmethanesulfonylpyridin-3-yl)acetamido]-3-fluoro-N-phenylbenzamide]	–
≤ 100	CC(C)(C1CCCO1)N(C(=O)c1ccc(NC(=O)Cc2ccc(S(=O)(=O)CC3CC3)nc2)cc1)c1ccccc1 (stereo not drawn) [Example 160, 4-[2-(6-cyclopropylmethanesulfonylpyridin-3-yl)acetamido]-N-[2-(oxolan-2-yl)propan-2-yl]-N-phenylbenzamide]	–
≤ 100	Cc1ccc(N(C(=O)c2ccc(NC(=O)Cc3ccc(S(=O)(=O)CC4CC4)nc3)cc2)C(C)(C)CO)cc1 [Example 161, 4-[2-(6-cyclopropylmethanesulfonylpyridin-3-yl)acetamido]-N-(1-hydroxy-2-methylpropan-2-yl)-N-(4-methylphenyl)benzamide]	–
≤ 100	CCN(C(=O)c1ccc(NC(=O)Cc2ccc(S(=O)(=O)CC3CC3)cc2)cc1C)c1ccccc1 [Example 162, 4-[2-(4-cyclopropylmethanesulfonylphenyl)acetamido]-N-ethyl-2-methyl-N-phenylbenzamide]	–
≤ 10	Cc1cc(NC(=O)Cc2ccc(S(=O)(=O)CC3CC3)cc2)ccc1C(=O)N(C)c1ccccc1C [Example 163, 4-[2-(4-cyclopropylmethanesulfonylphenyl)acetamido]-N,2-dimethyl-N-(2-methylphenyl)benzamide]	–
≤ 10	CCN(C(=O)c1ccc(NC(=O)Cc2ccc(S(=O)(=O)CC3CC3)cc2)cc1C)c1cccc(C)c1C [Example 164, 4-[2-(4-cyclopropylmethanesulfonylphenyl)acetamido]-N-(2,3-dimethylphenyl)-N-ethyl-2-methylbenzamide]	–
≤ 100	Cc1cc(NC(=O)Cc2ccc(S(=O)(=O)CC3CC3)cc2)ccc1C(=O)N(C)c1ccccc1F [Example 165, 4-[2-(4-cyclopropylmethanesulfonylphenyl)acetamido]-N-(2-fluorophenyl)-N,2-dimethylbenzamide]	–
≤ 10	CCN(C(=O)c1ccc(NC(=O)Cc2ccc(S(=O)(=O)CC3CC3)cc2)cc1C)c1ccccc1Cl [Example 166, N-(2-chlorophenyl)-4-[2-(4-cyclopropylmethanesulfonylphenyl)acetamido]-N-ethyl-2-methylbenzamide]	–
